Assay results reported in US20260256792A1, “TREATMENT OF CHRONIC SPONTANEOUS URTICARIA BY ADMINISTERING (R)-2-[3-[4-AMINO-3-(2-FLUORO-4-PHENOXY-PHENYL)PYRAZOLO[3,4-D]PYRIMIDIN-1-YL]PIPERIDINE-1-CARBONYL]-4-METHYL-4-[4-(OXETAN-3-YL)PIPERAZIN-1-YL]PENT-2-ENENITRILE” (priority 2023, published 2026).

Tested on: moderate-to-severe chronic spontaneous urticaria (CSU)
Assay: Phase 2 CSU study: itch severity score over 7 days (ISS7)
Assay type: in vivo, human
Settings: for Change from Baseline in ISS7 at Week 12, LS Mean Diff vs. placebo / Change from Baseline in ISS7 at Week 12, Mean / Change from Baseline in ISS7 at Week 12, LS Mean: Omalizumab-naïve population; for ISS7 change from baseline at Week 12, LS Mean / ISS7 change from baseline at Week 12, LS Mean Diff vs. placebo: ANCOVA
Source text: The study comprises a 12 week, randomized, double-blind, placebo-controlled, multi-center, dose-ranging efficacy and safety phase, followed by a 40 week open label extension (OLE) phase (see FIG. 1). The study consists of three phases and an optional OLE phase. […] Clinically, CSU is characterized by the spontaneous and recurrent appearance of pruritic hives. The proposed primary endpoints were the UAS7 at Week 12 in EU and EU reference countries and the ISS7 in the US. Regardless of where a participant was from, all assessments were the same. The UAS7 score is a composite score containing both the HSS7 and the ISS7. This allowed a global assessment of the two key components of urticaria: hives and itch. […] The UAS is a validated PRO measure. […] The daily UAS scores range from 0 to 6 point/day. […] Patients were to complete the UAS using the e-diary. […] The following secondary endpoints were to be analyzed using the same approach as for the primary endpoint: • Change from baseline in UAS7 at Week 4 • Change from baseline in UAS7 at Week 12 (for US and US reference countries) • Change from baseline in ISS7 at Week 12 (except US and US reference countries) • Change from baseline in HSS7 at Week 12

[1] = 400 mg BID, Race All the Others
[2] = 400 mg BID, Region Eastern Europe
[3] = 400 mg BID, Region Latin America
[4] = 400 mg BID, Region Western Countries
[5] = 400 mg BID, omalizumab-naïve population
[6] = 400 mg BID, omalizumab-naïve population with outlier removed
[7] = 400 mg QPM, Age group (years) <44 (Median)
[8] = 400 mg QPM, Age group (years) <65
[9] = 400 mg QPM, Age group (years) ≥44 (Median)
[10] = 400 mg QPM, Baseline BHRA BHRA+
[11] = 400 mg QPM, Baseline BHRA BHRA−
[12] = 400 mg QPM, Baseline Eosinophils (10^9/L) <0.165 (Median)
[13] = 400 mg QPM, Baseline Eosinophils (10^9/L) <0.3
[14] = 400 mg QPM, Baseline Eosinophils (10^9/L) ≥0.165 (Median)
[15] = 400 mg QPM, Baseline Eosinophils (10^9/L) ≥0.3
[16] = 400 mg QPM, Baseline H1-antihistamines dose 1-fold
[17] = 400 mg QPM, Baseline H1-antihistamines dose 2 to 4-fold standard dose
[18] = 400 mg QPM, Baseline ISS7 score <13
[19] = 400 mg QPM, Baseline ISS7 score ≥13
[20] = 400 mg QPM, Baseline Total IgE (IU/mL) <100
[21] = 400 mg QPM, Baseline Total IgE (IU/mL) <300
[22] = 400 mg QPM, Baseline Total IgE (IU/mL) ≥100
[23] = 400 mg QPM, Baseline Total IgE (IU/mL) ≥300
[24] = 400 mg QPM, Baseline UAS7 score <28
[25] = 400 mg QPM, Baseline UAS7 score ≥28
[26] = 400 mg QPM, Duration of disease (years) 2-10

## CC(C)(C=C(C#N)C(=O)N1CCC[C@@H](n2nc(-c3ccc(Oc4ccccc4)cc3F)c3c(N)ncnc32)C1)N1CCN(C2COC2)CC1 [rilzabrutinib, (R)-2-[3-[4-amino-3-(2-fluoro-4-phenoxy-phenyl)pyrazolo[3,4-d]pyrimidin-1-yl]piperidine-1-carbonyl]-4-methyl-4-[4-(oxetan-3-yl)piperazin-1-yl]pent-2-enenitrile]
[1]
  Change from Baseline in ISS7 at Week 12, LS Mean Diff vs. placebo: −3.52
  Change from Baseline in ISS7 at Week 12, Mean: −6.86
400 mg BID, Race White
  Change from Baseline in ISS7 at Week 12, LS Mean: −7.91
  Change from Baseline in ISS7 at Week 12, LS Mean Diff vs. placebo: −1.90
  Change from Baseline in ISS7 at Week 12, Mean: −7.64
400 mg BID, Region Asia
  Change from Baseline in ISS7 at Week 12, LS Mean: −6.99
  Change from Baseline in ISS7 at Week 12, LS Mean Diff vs. placebo: −3.54
  Change from Baseline in ISS7 at Week 12, Mean: −6.86
[2]
  Change from Baseline in ISS7 at Week 12, LS Mean: −4.38
  Change from Baseline in ISS7 at Week 12, LS Mean Diff vs. placebo: 8.28
  Change from Baseline in ISS7 at Week 12, Mean: −10.81
[3]
  Change from Baseline in ISS7 at Week 12, LS Mean: −4.75
  Change from Baseline in ISS7 at Week 12, LS Mean Diff vs. placebo: 1.84
  Change from Baseline in ISS7 at Week 12, Mean: −4.42
[4]
  Change from Baseline in ISS7 at Week 12, LS Mean: −10.12
  Change from Baseline in ISS7 at Week 12, LS Mean Diff vs. placebo: −5.57
  Change from Baseline in ISS7 at Week 12, Mean: 9.95
[5]
  ISS7 at Week 12, Mean: 8.09
  ISS7 at Week 12, Median: 7.00
  ISS7 change from baseline at Week 12, Mean: −7.40
  ISS7 change from baseline at Week 12, Median: −7.00
  LS mean reduction in ISS7 (see Table 30): −5.06
  ISS7 change from baseline at Week 12, LS Mean: −7.73 points
  ISS7 change from baseline at Week 12, LS Mean Diff vs. placebo: −1.96
[6]
  ISS7 at Week 12, Mean: 8.09
  ISS7 at Week 12, Median: 7.00
  ISS7 change from baseline at Week 12, Mean: −7.40
  ISS7 change from baseline at Week 12, Median: −7.00
  ISS7 change from baseline at Week 12, LS Mean: −7.76 points
  ISS7 change from baseline at Week 12, LS Mean Diff vs. placebo: −2.05
[7]
  Change from Baseline in ISS7 at Week 12, LS Mean: −4.68
  Change from Baseline in ISS7 at Week 12, LS Mean Diff vs. placebo: −0.21
  Change from Baseline in ISS7 at Week 12, Mean: −5.45
[8]
  Change from Baseline in ISS7 at Week 12, LS Mean: −4.78
  Change from Baseline in ISS7 at Week 12, LS Mean Diff vs. placebo: 0.88
  Change from Baseline in ISS7 at Week 12, Mean: −5.68
[9]
  Change from Baseline in ISS7 at Week 12, LS Mean: −4.77
  Change from Baseline in ISS7 at Week 12, LS Mean Diff vs. placebo: 1.83
  Change from Baseline in ISS7 at Week 12, Mean: −5.95
400 mg QPM, Age group (years) ≥65
  Change from Baseline in ISS7 at Week 12, Mean: −5.83
[10]
  Change from Baseline in ISS7 at Week 12, LS Mean: −8.50
  Change from Baseline in ISS7 at Week 12, LS Mean Diff vs. placebo: −3.12
  Change from Baseline in ISS7 at Week 12, Mean: −9.13
[11]
  Change from Baseline in ISS7 at Week 12, LS Mean: −4.66
  Change from Baseline in ISS7 at Week 12, Mean: −5.45
400 mg QPM, Baseline BMI (kg/m^2) ≥30
  Change from Baseline in ISS7 at Week 12, LS Mean Diff vs. placebo: 0.17
[12]
  Change from Baseline in ISS7 at Week 12, LS Mean: −4.00
  Change from Baseline in ISS7 at Week 12, LS Mean Diff vs. placebo: 2.51
  Change from Baseline in ISS7 at Week 12, Mean: −4.93
[13]
  Change from Baseline in ISS7 at Week 12, LS Mean: −4.64
  Change from Baseline in ISS7 at Week 12, LS Mean Diff vs. placebo: 0.83
  Change from Baseline in ISS7 at Week 12, Mean: −5.66
[14]
  Change from Baseline in ISS7 at Week 12, LS Mean: −5.54
  Change from Baseline in ISS7 at Week 12, LS Mean Diff vs. placebo: −1.46
  Change from Baseline in ISS7 at Week 12, Mean: 6.55
[15]
  Change from Baseline in ISS7 at Week 12, LS Mean: −5.53
  Change from Baseline in ISS7 at Week 12, LS Mean Diff vs. placebo: −0.68
  Change from Baseline in ISS7 at Week 12, Mean: −5.81
[16]
  Change from Baseline in ISS7 at Week 12, LS Mean: −4.24
  Change from Baseline in ISS7 at Week 12, LS Mean Diff vs. placebo: 2.59
  Change from Baseline in ISS7 at Week 12, Mean: −5.09
[17]
  Change from Baseline in ISS7 at Week 12, LS Mean: −5.28
  Change from Baseline in ISS7 at Week 12, LS Mean Diff vs. placebo: −1.80
  Change from Baseline in ISS7 at Week 12, Mean: −6.37
[18]
  Change from Baseline in ISS7 at Week 12, LS Mean: −1.87
  Change from Baseline in ISS7 at Week 12, LS Mean Diff vs. placebo: 0.85
  Change from Baseline in ISS7 at Week 12, Mean: −4.42
[19]
  Change from Baseline in ISS7 at Week 12, LS Mean: −5.38
  Change from Baseline in ISS7 at Week 12, LS Mean Diff vs. placebo: 0.36
  Change from Baseline in ISS7 at Week 12, Mean: −5.78
[20]
  Change from Baseline in ISS7 at Week 12, LS Mean: −3.37
  Change from Baseline in ISS7 at Week 12, LS Mean Diff vs. placebo: 0.87
  Change from Baseline in ISS7 at Week 12, Mean: −4.48
[21]
  Change from Baseline in ISS7 at Week 12, LS Mean: −4.46
  Change from Baseline in ISS7 at Week 12, LS Mean Diff vs. placebo: 0.05
  Change from Baseline in ISS7 at Week 12, Mean: −5.41
[22]
  Change from Baseline in ISS7 at Week 12, LS Mean: −5.51
  Change from Baseline in ISS7 at Week 12, LS Mean Diff vs. placebo: 0.52
  Change from Baseline in ISS7 at Week 12, Mean: −6.28
[23]
  Change from Baseline in ISS7 at Week 12, LS Mean: −4.90
  Change from Baseline in ISS7 at Week 12, LS Mean Diff vs. placebo: 1.64
  Change from Baseline in ISS7 at Week 12, Mean: −6.11
[24]
  Change from Baseline in ISS7 at Week 12, LS Mean: −3.33
  Change from Baseline in ISS7 at Week 12, LS Mean Diff vs. placebo: −0.15
  Change from Baseline in ISS7 at Week 12, Mean: −5.32
[25]
  Change from Baseline in ISS7 at Week 12, LS Mean: −5.59
  Change from Baseline in ISS7 at Week 12, LS Mean Diff vs. placebo: 1.01
  Change from Baseline in ISS7 at Week 12, Mean: −5.78
[26]
  Change from Baseline in ISS7 at Week 12, LS Mean: −5.24
  Change from Baseline in ISS7 at Week 12, LS Mean Diff vs. placebo: 1.79
  Change from Baseline in ISS7 at Week 12, Mean: −6.43
